Measurements as given in PubChem BioAssay AID1963970 (Molecular Pharmacology Branch, DTP, NCI, 2024).

Test system: 931267-113-T-J1-PDC multicell spheroid viability
Assay: Anticancer human tumor 931267-113-T-J1-PDC patient-derived colon adenocarcinoma cell line growth inhibition [PI3K]
Settings: for IC50: curve of first compound; for viability, T/C: stronger effect = lower value
Procedure, shortened: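 High-throughput combination screen: PI3K inhibitors crossed with targeted small molecules on complex spheroids of tumor cells, HUVEC and MSCs at 37 degrees C, 5% CO2. Top concentration was at or near clinical Cmax (otherwise 10 microM), with half-log decrements.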

[1] = second compound 0.0316 µM, first compound 0.0316 µM
[2] = second compound 0.0316 µM, first compound 0.1 µM
[3] = second compound 0.0316 µM, first compound 0.316 µM
[4] = second compound 0.0316 µM, first compound 1 µM
[5] = second compound 0.0316 µM, first compound 3.16 µM
[6] = second compound 0.0316 µM, first compound 10 µM
[7] = second compound 0.1 µM, first compound 0.0316 µM
[8] = second compound 0.1 µM, first compound 0.1 µM
[9] = second compound 0.1 µM, first compound 0.316 µM
[10] = second compound 0.1 µM, first compound 1 µM
[11] = second compound 0.1 µM, first compound 3.16 µM
[12] = second compound 0.1 µM, first compound 10 µM
[13] = second compound 0.316 µM, first compound 0.0316 µM
[14] = second compound 0.316 µM, first compound 0.1 µM
[15] = second compound 0.316 µM, first compound 0.316 µM
[16] = second compound 0.316 µM, first compound 1 µM
[17] = second compound 0.316 µM, first compound 3.16 µM
[18] = second compound 0.316 µM, first compound 10 µM
[19] = second compound 1 µM, first compound 0.0316 µM
[20] = second compound 1 µM, first compound 0.1 µM
[21] = second compound 1 µM, first compound 0.316 µM
[22] = second compound 1 µM, first compound 1 µM
[23] = second compound 1 µM, first compound 3.16 µM
[24] = second compound 1 µM, first compound 10 µM
[25] = second compound 3.16 µM, first compound 0.0316 µM
[26] = second compound 3.16 µM, first compound 0.1 µM
[27] = second compound 3.16 µM, first compound 0.316 µM
[28] = second compound 3.16 µM, first compound 1 µM
[29] = second compound 3.16 µM, first compound 3.16 µM
[30] = second compound 3.16 µM, first compound 10 µM
[31] = second compound 10 µM, first compound 0.0316 µM
[32] = second compound 10 µM, first compound 0.1 µM
[33] = second compound 10 µM, first compound 0.316 µM
[34] = second compound 10 µM, first compound 1 µM
[35] = second compound 10 µM, first compound 3.16 µM
[36] = second compound 10 µM, first compound 10 µM
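Further: viability read 7 days after compound addition.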

C#Cc1c(F)ccc2cc(O)cc(-c3ncc4c(N5CC6CCC(C5)N6)nc(OCC56CCCN5CC(F)C6)nc4c3F)c12 (stereo not drawn) + CC(Nc1ncnc2nc[nH]c12)c1cc2cccc(Cl)c2c(=O)n1-c1ccccc1
IC50 (second compound 0.0316 µM): 0.631 µM
IC50 (second compound 0.1 µM): 0.573 µM
IC50 (second compound 0.316 µM): 0.664 µM
IC50 (second compound 1 µM): 0.677 µM
IC50 (second compound 3.16 µM): 0.378 µM
IC50 (second compound 10 µM): 0.222 µM
viability, T/C [1]: 96.4%
viability, T/C [2]: 74%
viability, T/C [3]: 57.6%
viability, T/C [4]: 45.7%
viability, T/C [5]: 32.6%
viability, T/C [6]: 22.5%
viability, T/C [7]: 105%
viability, T/C [8]: 78.1%
viability, T/C [9]: 56.6%
viability, T/C [10]: 45.4%
viability, T/C [11]: 29.5%
viability, T/C [12]: 24.5%
viability, T/C [13]: 90.9%
viability, T/C [14]: 72.9%
viability, T/C [15]: 61.4%
viability, T/C [16]: 43.4%
viability, T/C [17]: 33.6%
viability, T/C [18]: 23.2%
viability, T/C [19]: 89.1%
viability, T/C [20]: 78.6%
viability, T/C [21]: 57.9%
viability, T/C [22]: 42.1%
viability, T/C [23]: 37.3%
viability, T/C [24]: 21.2%
viability, T/C [25]: 87.3%
viability, T/C [26]: 70.3%
viability, T/C [27]: 52.1%
viability, T/C [28]: 36.1%
viability, T/C [29]: 28.4%
viability, T/C [30]: 17.6%
viability, T/C [31]: 91.1%
viability, T/C [32]: 63.1%
viability, T/C [33]: 45%
viability, T/C [34]: 27.1%
viability, T/C [35]: 22.7%
viability, T/C [36]: 12%

C=CC(=O)N1CCN(c2nc(=O)n(-c3c(C)ccnc3C(C)C)c3nc(-c4c(O)cccc4F)c(F)cc23)C(C)C1 (stereo not drawn) + CC(Nc1ncnc2nc[nH]c12)c1cc2cccc(Cl)c2c(=O)n1-c1ccccc1
IC50 (second compound 0.0316 µM): > 10 µM
IC50 (second compound 0.1 µM): > 10 µM
IC50 (second compound 0.316 µM): > 10 µM
IC50 (second compound 1 µM): > 10 µM
IC50 (second compound 3.16 µM): > 10 µM
IC50 (second compound 10 µM): > 10 µM
viability, T/C [1]: 97.5%
viability, T/C [2]: 103%
viability, T/C [3]: 96.6%
viability, T/C [4]: 111%
viability, T/C [5]: 107%
viability, T/C [6]: 107%
viability, T/C [7]: 110%
viability, T/C [8]: 113%
viability, T/C [9]: 107%
viability, T/C [10]: 111%
viability, T/C [11]: 117%
viability, T/C [12]: 94.2%
viability, T/C [13]: 112%
viability, T/C [14]: 109%
viability, T/C [15]: 116%
viability, T/C [16]: 107%
viability, T/C [17]: 114%
viability, T/C [18]: 96.5%
viability, T/C [19]: 108%
viability, T/C [20]: 109%
viability, T/C [21]: 99.5%
viability, T/C [22]: 105%
viability, T/C [23]: 111%
viability, T/C [24]: 88.3%
viability, T/C [25]: 104%
viability, T/C [26]: 101%
viability, T/C [27]: 93.5%
viability, T/C [28]: 99.9%
viability, T/C [29]: 107%
viability, T/C [30]: 87%
viability, T/C [31]: 94.9%
viability, T/C [32]: 96.8%
viability, T/C [33]: 107%
viability, T/C [34]: 98.1%
viability, T/C [35]: 106%
viability, T/C [36]: 102%

CC(Cn1ccc(-c2ccc(C#N)c(Cl)c2)n1)NC(=O)c1cc(C(C)O)[nH]n1 (stereo not drawn) + CC(Nc1ncnc2nc[nH]c12)c1cc2cccc(Cl)c2c(=O)n1-c1ccccc1
IC50 (second compound 0.0316 µM): > 10 µM
IC50 (second compound 0.1 µM): > 10 µM
IC50 (second compound 0.316 µM): > 10 µM
IC50 (second compound 1 µM): > 10 µM
IC50 (second compound 3.16 µM): > 10 µM
IC50 (second compound 10 µM): > 10 µM
viability, T/C [1]: 104%
viability, T/C [2]: 110%
viability, T/C [3]: 106%
viability, T/C [4]: 105%
viability, T/C [5]: 116%
viability, T/C [6]: 96.7%
viability, T/C [7]: 114%
viability, T/C [8]: 101%
viability, T/C [9]: 102%
viability, T/C [10]: 108%
viability, T/C [11]: 102%
viability, T/C [12]: 103%
viability, T/C [13]: 111%
viability, T/C [14]: 107%
viability, T/C [15]: 104%
viability, T/C [16]: 107%
viability, T/C [17]: 105%
viability, T/C [18]: 101%
viability, T/C [19]: 113%
viability, T/C [20]: 110%
viability, T/C [21]: 102%
viability, T/C [22]: 118%
viability, T/C [23]: 107%
viability, T/C [24]: 102%
viability, T/C [25]: 103%
viability, T/C [26]: 98.5%
viability, T/C [27]: 87%
viability, T/C [28]: 99.6%
viability, T/C [29]: 101%
viability, T/C [30]: 94.7%
viability, T/C [31]: 88%
viability, T/C [32]: 94.8%
viability, T/C [33]: 99.4%
viability, T/C [34]: 95.8%
viability, T/C [35]: 92.5%
viability, T/C [36]: 87.8%

CC1(C)CCC(Nc2ncc(C(F)(F)F)c(-c3c[nH]c4c(P(C)(C)=O)c(C#N)ccc34)n2)CN1 (stereo not drawn) + CC(Nc1ncnc2nc[nH]c12)c1cc2cccc(Cl)c2c(=O)n1-c1ccccc1
IC50 (second compound 0.0316 µM): > 10 µM
IC50 (second compound 0.1 µM): > 10 µM
IC50 (second compound 0.316 µM): > 10 µM
IC50 (second compound 1 µM): > 10 µM
IC50 (second compound 3.16 µM): > 10 µM
IC50 (second compound 10 µM): > 10 µM
viability, T/C [1]: 107%
viability, T/C [2]: 105%
viability, T/C [3]: 97%
viability, T/C [4]: 88.5%
viability, T/C [5]: 90.8%
viability, T/C [6]: 74.1%
viability, T/C [7]: 114%
viability, T/C [8]: 105%
viability, T/C [9]: 93.6%
viability, T/C [10]: 93.1%
viability, T/C [11]: 91.5%
viability, T/C [12]: 81.6%
viability, T/C [13]: 104%
viability, T/C [14]: 104%
viability, T/C [15]: 103%
viability, T/C [16]: 92.8%
viability, T/C [17]: 95.1%
viability, T/C [18]: 67.4%
viability, T/C [19]: 106%
viability, T/C [20]: 100%
viability, T/C [21]: 94.6%
viability, T/C [22]: 82.7%
viability, T/C [23]: 96.5%
viability, T/C [24]: 69.5%
viability, T/C [25]: 106%
viability, T/C [26]: 100%
viability, T/C [27]: 89.4%
viability, T/C [28]: 87%
viability, T/C [29]: 82.6%
viability, T/C [30]: 69.5%
viability, T/C [31]: 92.2%
viability, T/C [32]: 97%
viability, T/C [33]: 80.1%
viability, T/C [34]: 82.5%
viability, T/C [35]: 83.1%
viability, T/C [36]: 56.2%
